Experimental data reported in ChEMBL document CHEMBL1141775, “Friedolanostanes and lanostanes from the leaves of Garcinia hombroniana” (2005).

System: Staphylococcus aureus
Test: Antibacterial activity against methicillin-resistant Staphylococcus aureus
Format: functional

SMILES	MIC [µg/mL]
COC(=O)[C@H](C)CC(=O)C[C@@H](C)C1=CC[C@@]2(C)[C@@H]3CC[C@H]4C(C)(C)[C@@H](O)CC[C@]4(C)C3=CC[C@]12C	> 128
COC(=O)/C(C)=C/[C@H](O)C[C@@H](C)[C@]1(C)CC=C2[C@@H]3CC[C@H]4C(C)(C)[C@H](O)CC[C@]4(C)[C@@]3(O)CC[C@]21C [GARCIHOMBRONANE B]	> 128
CC(C)=C/C=C\[C@@H](C)[C@]1(C)CC=C2[C@@H]3CC[C@H]4C(C)(C)[C@H](O)CC[C@]4(C)[C@@]3(O)CC[C@]21C [GARCIHOMBRONANE F]	> 128
C/C(=C\C=C/[C@@H](C)[C@]1(C)CC[C@]2(C)C1=CC[C@@]1(O)[C@H]2CC[C@H]2C(C)(C)[C@H](O)CC[C@@]21C)C(=O)O [GARCIHOMBRONANE G]	> 128
C/C(=C\CC[C@@H](C)[C@]1(C)CC[C@]2(C)C1=CC[C@@]1(O)[C@H]2CC[C@H]2C(C)(C)[C@H](O)CC[C@@]21C)C(=O)O [GARCIHOMBRONANE H]	> 128
C/C(=C\CC[C@@H](C)[C@]1(C)CC[C@]2(C)C1=CC[C@@]1(O)[C@H]2CC[C@H]2C(C)(C)[C@@H](O)CC[C@@]21C)C(=O)O [GARCIHOMBRONANE I]	> 128
COC(=O)[C@H](C)CC(=O)C[C@@H](C)C1=CC[C@@]2(C)[C@@H]3CC[C@H]4C(C)(C)[C@H](O)CC[C@]4(C)C3=CC[C@]12C [GARCIHOMBRONANE J]	> 128
COC(=O)/C(C)=C/[C@H](O)C[C@@H](C)[C@]1(C)CC=C2C3=C(CC[C@]21C)[C@@]1(C)CC[C@@H](O)C(C)(C)[C@@H]1CC3 [GARCIHOMBRONANES C]	> 128
C[C@H](CC(=O)C[C@@H](C)C1=CC[C@@]2(C)[C@@H]3CC[C@H]4C(C)(C)[C@@H](O)CC[C@]4(C)C3=CC[C@]12C)C(=O)O [GARCIHOMBRONANES D]	> 128
C[C@H](CC(=O)C[C@@H](C)C1=CC[C@@]2(C)[C@@H]3CC[C@H]4C(C)(C)[C@H](O)CC[C@]4(C)C3=CC[C@]12C)C(=O)O [GARCIHOMBRONANES E]	> 128
